# Data as given in patent publication US20240415798A1, “COMPOSITIONS AND METHODS FOR TREATING MUCOSITIS” (Enzychem Lifesciences Corporation, priority 2021, published 2024).
# Several values for one entry are separate records, joined by “and”; a condition that tells them apart may be missing. Identical values can stand only once.
# What was measured:
# TGFβ = assay: Luminex assay of patient plasma, TGFβ; assay type: in vivo, human
# Method: (§1) The plasma sample collected from the blood of patients listed in (Table 1 below) was thawed and centrifuged at 10,000 rpm at 4° C. for 2 minutes, and the supernatant was used for analysis. The supernatant was serially diluted, and 50 μl of the samples were dispensed to each well in a 96-well plate. 5O μl of diluted Microparticle Cocktail (R&D systems) shown in Table 2 was added to each well containing samples and incubated for 2 hours at room temperature on a shaker at 800 rpm. The sample mixture was removed and washed with 100 μl of washing buffer three times. Then, 50 μL of diluted Biotin-Antibody Cocktail (R&D systems) to each well and incubate for 1 hour at RT on the shaker at 800 rpm, followed by three times of washing with wash buffer. 50 μL of diluted […] at RT on the shaker at 800 rpm. After washing with wash buffer three times, 100 μl of wash buffer was added to each well, and the sample's fluorescence intensity was obtained using a Luminex analyzer (Luminex) within 90 mins.
# (§2) Standard, control and the sample was quantitatively analyzed using the average value of the results obtained by duplicate test.
# (§3) The absolute value of each sample's mean fluorescence intensity (MFI) was obtained by comparing it to the standard curve. The value derived as an under-standard was marked as 0 because it is a trace value outside the detection range of the assay kit.
# (§4) The standard curve was obtained by the best fit method in ‘MasterPlex QT 2010 (MiraiBio, Hitachi, CA, USA)’ to calculate the response measured value (MFI) for each standard concentration, which has the highest R square value among each calculation method (Highest value =1.0). The sample's resultant concentration value was calculated based on this standard curve.
# [1] = test system: severe oral mucositis (SOM); assay: Phase 2 clinical study of EC-18 in chemoradiation-induced oral mucositis (efficacy); assay type: in vivo, human
# Description: Human patients of the following characteristics were enrolled: • 18 years or older • Diagnosis of squamous cell carcinoma of the mouth, oropharynx, hypopharynx or nasopharynx • Planned to receive IMRT with daily fractions of 2.0 Gy to 2.2 Gy to a cumulative dose of at least 60 Gy and a maximum of 72 Gy • Radiation fields to include at least two mucositis sites at risk (buccal mucosa, floor of mouth, ventral and lateral tongue, soft palate) in which both sites receive a minimum cumulative dose of 55 Gy • Planned to receive concomitant single agent chemotherapy with cisplatin
# EC-18 was administered in varying patients of the treatment group up to 2000 mg/day. Recommended therapy was 500 mg EC-18 capsule administered 4 times throughout the day (e.g., 2 capsules of 500 mg EC-18 administered within 30 mins after taking breakfast and dinner) for a total daily dosage of 2000 mg EC-18 per day. Treatment protocol lasted 7 weeks while radiation therapy and cisplatin therapy continued during the same time.
# (§5) For the study, 25 large institutions and hospitals experienced with head and neck cancer treatment were selected • Stage 1: To Evaluate safety and MTD that can be used for Stage 2 iDSMB: Data and Safety Monitoring Board reviewed safety data every 2 weeks and approved for Stage 2 using MTD 2000 mg. • Stage 2: To Evaluate safety and efficacy 7 weeks Active and 4-6 weeks of STFU until OM is resolved. • 2.0-2.2 Gy daily fraction (5 days a week for 7 weeks) and I week (40 mg/m2) or every 3 weeks (100 mg/m2) cisplatin. • Minimum cumulative radiation dose of 55 Gy.
# For Efficacy, measured duration of severe oral mucositis (SOM), Incidence of SOM during active treatment.
# In Stage 1, we included Stage 1 placebo and 2000 mg patients to Stage 2 for efficacy analysis: • Placebo group: Stage 1 n=2, Stage 2 n=18: Total: 20 • EC-18 2000 mg group: Stage 1 n=5, Stage 2 n=17: Total: 22
# [2] = Phase 2 clinical study of EC-18, safety (SAE/AE, MTD); assay type: in vivo
# Method: as §5
# Stage 1 had 17 total SAEs from a total of 24 patients when Stage 2 had 31 total SAEs from a total of 81 patients. 020-018 patient was determined by investigator to be not related to study drug. Many SAEs occurred due to nausea and vomiting which is a normal symptom for chemo treatment
# IL-1β = assay: Luminex assay of patient plasma, IL-1β; assay type: in vivo, human
# Method: as §1, §2, §3, §4
# [3] = regardless of the incidence of SOM
# [4] = PP population, EC-18 2,000 mg vs placebo
structure (smiles),measurement,setting,value
CCCCC/C=C\C/C=C\CCCCCCCC(=O)OC(COC(C)=O)COC(=O)CCCCCCCCCCCCCCC (centres unmarked) [EC-18],"TGF-β concentration vs placebo, total",TGFβ; 7th week of chemoradiation therapy,significantly higher than the placebo group
same,"TGF-β concentration vs placebo, HPV-positive",TGFβ; HPV-positive population,significantly higher compared with placebo
same,"TGF-β concentration vs placebo, with or without SOM",TGFβ; [3],higher compared with the placebo group
same,"TGFβ concentration vs placebo, tri-weekly cisplatin",TGFβ; sub-population with tri-weekly cisplatin,not significantly different
same,"TGF-β concentration vs placebo, cisplatin once a week",TGFβ; sub-population with weekly cisplatin,significantly higher compared with placebo
same,reduction of incidence of SOM compared to placebo population,[1]; EC-18 group vs placebo,over 35%
same,therapeutic benefit over the control group,"[1]; EC-18 up to 2000 mg/day, 7 weeks, with radiation and cisplatin",clear therapeutics benefit over the control group
same,delay of SOM onset compared with placebo,[1]; [4],8 days
same,"delay of first opioid use vs placebo, mean",[1]; [4],6.3 days
same,"delay of first opioid use vs placebo, median",[1]; [4],11.5 days
same,time to SOM onset,"[1]; PP population, EC-18 2,000 mg, placebo 43 days",51 days
same,incidence of SOM through active treatment period,"[1]; PP population, baseline through 7-week active treatment period, EC-18 2,000 mg, placebo 65.0%",36.4%
same,incidence of SOM (number of subjects),"[1]; PP population, baseline through active treatment period and STFU, EC-18 2000 mg (n=22), placebo 14",10
same,incidence of SOM,"[1]; PP population, baseline through active treatment period and STFU, EC-18 2000 mg, placebo 70.0%",45.5% and 45%
same,"time to first use of opioid analgesics, median","[1]; PP population, evaluable subjects n=8, EC-18 2000 mg, placebo 25.5 days",37 days
same,"time to first use of opioid analgesics, mean","[1]; PP population, evaluable subjects n=8, EC-18 2000 mg, placebo 26 days",32.3 days
same,SOM incidence at each week interval,"[1]; PP population, weekly intervals, vs placebo",less than placebo group
same,"incidence of SOM, HPV+","[1]; subjects with HPV+, EC-18 2000 mg, placebo 66.7%",35.3%
same,"incidence of SOM, HPV−","[1]; subjects with HPV−, EC-18 2000 mg, placebo 71.4%",75%
same,"incidence of SOM, tri-weekly cisplatin","[1]; subjects with tri-weekly cisplatin, EC-18 2000 mg, placebo 70.0%",66.7%
same,"incidence of SOM, weekly cisplatin","[1]; subjects with weekly cisplatin, EC-18 2000 mg, placebo 70.0%",37.5%
same,MTD,"[2]; Stage 1, daily dose, approved for Stage 2",2000 mg
same,serious adverse events (SAE) across study arms,"[2]; human, in vivo",no appreciable differences in SAEs were observed across the study arms
same,attribution of reported AEs,"[2]; human, in vivo, 7 weeks",all the reported AEs were attributable to chemoradiation treatment and not to EC-18
same,IL-1β concentration at 4th and 7th weeks,IL-1β; 4th and 7th weeks of treatment,under the detection limit
same,"IL-1β concentration vs placebo, HPV+/HPV−",IL-1β; regardless of HPV infection state,significantly lower compared with the placebo group
same,"IL-1β concentration vs placebo, with or without SOM",IL-1β; [3],significantly lower compared with the placebo group
same,"IL-1β concentration vs placebo, weekly or tri-weekly cisplatin",IL-1β; regardless of the weekly or tri-weekly cisplatin treatment,significantly lower than in the placebo group
same,"IL-1β concentration vs placebo, total",IL-1β; throughout seven weeks treatment period,significantly lower than the placebo group
